Consider three compounds from patent US5183828A, “Polyhydroxybenzoic acid derivatives” (priority 1990, dated 1993).

Where “and” joins values, the source holds several entries; their conditions need not be identical. Equal values may be shown once.

One test relates to L1210 leukemia. Nature of the test: antitumor activity in L1210 leukemia (percent increase in survival time), Table 2. The conditions noted are these: 8 days. It is filed as in vivo, mice. As to the method: Testing of the compounds of this invention against L-1210 lymphoid leukemia were carried out as follows: L-1210 leukemia was maintained by weekly passage of 10^5 L-1210 cells intraperitoneally into DBA/2 mice. Diluted ascitic fluid, 0.1 ml. (10^5 cells), was administered ip to female B6D2 F1 mice weighing about 20 g. Drugs were administered ip 24 hours after tumor transplantation and injections were continued daily for a total of eight days. A group of control mice receiving only the injection medium were maintained. Table 2 which follows gives the antitumor activity against L-1210 leukemia for certain compounds of this invention. In the table, column 1 gives the name of the compound, column 2 the dose in mg./kg., and column 3 the percent increase in survival time over controls at each dose level.

Test [1] can be described thus: free radical scavenging ability (destruction of diphenylpicrylhydrazyl), Table 7. The conditions noted are these: 100 μM diphenylpicrylhydrazyl in acetone; test compound 25 μM, 2.5 μM (footnote). The source says: It is believed that the antineoplastic activity of the compounds of this invention is due in parts to their ability to scavenge free-radicals. Additionally, the compounds of this invention are cancer protective agents and this utility also may be a manifestation of their free-radical scavenging capability. Free-radical scavenging agents may also be useful in detoxifying mammals in whom an excess of free radicals is a cause and/or result of the toxicity. Other possible uses of free radical scavengers are to inhibit protaglandin transformation, leucotriene interconversion and lipogenesis, to act as inflammatory modulators and as food additive or preservatives to prevent lipid oxidation. The free radical scavenging ability of the compounds of the invention was determined by measuring the destruction of the stable free radical, diphenylpicrylhydrazyl, in the presence of the test compound in a manner similar to that reported by […] and Herzmann, Naturwiss, 47, 133-134 (1960). […] The test compound was added at a final concentration of 25 μM and the rate of reduction of absorpotion at […] was observed. Table 7 below gives the free radical scavenging abilities of the compounds of this invention expresses as the initial rate of decrease in optical density units/min.

Test [2] concerns arachidonic acid induced ear edema. Nature of the test: arachidonic acid induced ear edema assay, Table 10. The test is classed as in vivo, Mice. The settings on record: Experiment 1, 2 mg total dose, topical; for Mean Increase in Weight of Inflammed Ear (± S.E.): positive control 17.0 ± 0.6, p = .000. The protocol: The compounds of this invention because of their ability to scavenge free-radicals in vivo are capable of modulating inflammation as set forth in the following protocol: Mice received the test compound topically to each side of the right ear one hr prior to the inflammatory challenge, at which time they were challenged (except for the negative control) with 10 microliter of a 2 mg/20 microliter solution of arachidonic acid applied to each side of the right ear. One hour post-challenge, the animals were sacrificed, the right ears removed, and an 8 mm disc punched from each. These discs were then weighed. The following table gives the results of this experiment.

A further test has as its target T1, Δ^5-lipoxygenase (Rattus norvegicus, UniProt P12527).
T1 construct: supernatant fraction of lysed rat basophilic leukemia (RBL-1) cells; endogenous in cells; host or cells: RBL-1 cells, 49,000 g supernatant of homogenate
T1 sequence (P12527 1-673): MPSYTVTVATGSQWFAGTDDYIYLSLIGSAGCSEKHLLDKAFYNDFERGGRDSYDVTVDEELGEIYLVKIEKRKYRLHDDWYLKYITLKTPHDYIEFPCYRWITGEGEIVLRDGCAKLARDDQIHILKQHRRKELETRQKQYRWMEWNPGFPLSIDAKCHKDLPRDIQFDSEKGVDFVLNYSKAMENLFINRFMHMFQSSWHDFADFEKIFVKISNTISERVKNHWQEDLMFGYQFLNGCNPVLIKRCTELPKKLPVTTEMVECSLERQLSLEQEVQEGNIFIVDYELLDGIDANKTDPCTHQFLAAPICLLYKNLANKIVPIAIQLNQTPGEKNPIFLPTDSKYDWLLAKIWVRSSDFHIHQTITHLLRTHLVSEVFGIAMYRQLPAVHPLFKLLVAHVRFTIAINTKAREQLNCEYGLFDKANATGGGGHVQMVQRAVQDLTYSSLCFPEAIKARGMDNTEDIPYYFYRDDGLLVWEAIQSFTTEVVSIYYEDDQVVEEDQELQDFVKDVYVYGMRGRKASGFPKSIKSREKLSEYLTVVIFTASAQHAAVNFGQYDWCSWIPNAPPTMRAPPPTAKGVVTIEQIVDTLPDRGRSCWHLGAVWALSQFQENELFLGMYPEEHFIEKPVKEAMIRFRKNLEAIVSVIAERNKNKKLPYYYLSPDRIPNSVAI
Nature of the test: ability to inhibit Δ^5-lipoxygenase. It is filed as biochemical. The settings on record: RBL-1 cell supernatant. As to the method:
This enzyme is believed to initiate the synthesis of slow reacting substance of […]), an important mediator in the pathogenesis of asthma. Thus, a drug capable of inhibiting this enzyme would also help to prevent asthmatic attacks. In this determination, Δ^5 -lipoxygenase was derived from the supernatant fraction of lysed rat basophilic leukemia (RBL-1) cells. […] The Δ^5 -lipoxygenase was derived from RBL-1 cells which were lysed by homogenization in ice-cold buffer (50 mM Tris-HCl buffer, pH 7.2, containing 1 mM EDTA and 14 uM indomethacin). The homogenate was centrifuged at 4 ° C. at 49,000 g for 20 min and the resulting supernatant fraction was used as the source of Δ^5 -lipoxygenase. The enzyme was assayed at 37° using 6.7 uM (0.39 uCi/ml) [1-14C]arachidonic acid as the substrate in 50 mM Tris-HCl buffer, pH 7.2, containing 1 mM gluthatione, 3 mM CaCl2, 14 uM indomethacin, and 0.25 to 0.50 mM EDTA. […] The effect of compounds on Δ^5 -lipoxygenase activity was determined by preincubating the enzyme for 10 min at 30° in the presence or absence of various concentrations of the drug prior to addition of substrate.

A further test deals with L-1210 Leukemia. Nature of the test: activity vs L-1210 leukemia (T/C % survival time), Table 3. The test is classed as in vivo, mice. The settings on record: >130 significant, hydrochloride. An excerpt: 3,4-Dihydroxybenzamidoxime and 3,4,5-trihydroxybenzamidoxime were subjected to a further series of tests against various transplanted tumors in mice according to the following protocols:
For L-1210 lymphoid leukemia, 20 grams CDF1 or BDF1 mice […] ip with 10^5 leukemia cells. The drug was given one day after tumor inoculation continued for an additional eight days. The mean survival time for the treated animal was compared to that of the control group. In the table, column 1 gives the name of the compound, column 2 the dose levels, and column 3 treated over control percent survival time. (In other words, a figure of 175 indicates a 75% increase in survival time.)

The subject of another test is P388 Leukemia. Nature of the test: activity vs P388 leukemia (T/C % survival time), Table 6. It is filed as in vivo, mice. The settings on record: five treatments, >130 significant. As to the method: The following protocol was used:
CDF1 mice were injected ip with 10^6 cells The drug was administered in the first day after tumor inoculation and continued daily for five treatments. The mean survival time of the treated group compared to the non-treated control group equals T/C×100=T/C percent.

In the next test the test system is L1210. Nature of the test: antileukemia activity of nitriles vs L1210, Table 8. It is filed as in vivo. An excerpt:
(§1) Table 8 which follows gives anti-tumor data vs L-1210 and P-388 leukemia for these novel nitriles.

The subject of a further test is P-388. Nature of the test: antileukemia activity of nitriles vs P-388, Table 8. The test is classed as in vivo.
Source text: as §1

The term ILS denotes the gain in survival time of treated over control animals, in per cent. A high value points to a large benefit in survival. In general, inhibition refers to how much of the control response was suppressed. Lower therefore signals a response near the control. As for `Cl.N=C(N)c1cc(O)c(O)c(O)c1` [3,4,5-trihydroxybenzamidine.HCl, 3,4,5-trihydroxybenzamidine-HCl], the increase in lifespan (ILS) at 200 mg/kg with L1210 leukemia (Mus musculus, L1210, 192 h, 200 mg/kg ip daily) stood at 43.5%. In addition, the ILS at 300 mg/kg in the test with L1210 leukemia (Mus musculus, L1210, 192 h, 300 mg/kg ip daily) stood at 10.2%. The “initial rate of decrease in optical density (518 nm)” value in test [1] is recorded as 4.912 units/min. Further, in test [2], the “Percent Inhibition vs. positive control” value stood at 24% and the “Mean Increase in Weight of Inflammed Ear (± S.E.)” value is reported as 13.0 ± 0.3 mg. The compound further yielded an inhibition at 10 µM against Δ^5-lipoxygenase of 75%.

With `Cl.NC(=NO)c1cc(O)c(O)c(O)c1` [3,4,5-trihydroxybenzamidoxime.HCl, 3,4,5-Trihydroxybenzamidoxime hydrochloride], in the test with L1210 leukemia (196 mg/kg ip daily), the “% Increase in Survival Time” value was “toxic”. The compound further had an ILS at 59 mg/kg with L1210 leukemia (Mus musculus, L1210, 192 h, 59 mg/kg ip daily) of 90%. The increase in lifespan (ILS) at 132 mg/kg in the test with L1210 leukemia (Mus musculus, L1210, 192 h, 132 mg/kg ip daily) was 54.5%. The same compound came in with an ILS at 220 mg/kg in the test on L1210 leukemia (Mus musculus, L1210, 192 h, 220 mg/kg ip daily) of 63.6%. The compound also displayed an increase in life span (ILS) at 275 mg/kg with L1210 leukemia (Mus musculus, L1210, 192 h, 275 mg/kg ip daily) of 30.6%. The “t/c % (mean survival time)” value in the test on L-1210 Leukemia (25 mg/kg) is 136% and 121%; in the test with L-1210 Leukemia (50 mg/kg) it was 138% and 137%; in the test on L-1210 Leukemia (100 mg/kg), 152% and 137%; with L-1210 Leukemia (200 mg/kg), 212% and 182%. The “T/C % (mean survival time)” value is 142% and 138% and 141% with P388 Leukemia (50 mg/kg daily, hydrochloride); 150% and 154% and 138% and 148% with P388 Leukemia (100 mg/kg daily, hydrochloride); 155% and 177% with P388 Leukemia (200 mg/kg daily, hydrochloride); 163% in the test with P388 Leukemia (300 mg/kg daily); “toxic” with P388 Leukemia (400 mg/kg daily). In addition, in test [1], the “initial rate of decrease in optical density (518 nm)” value amounted to 0.929 units/min. Also, the “Percent Inhibition vs. positive control” value in test [2] is 44%. Also, in test [2], the “Mean Increase in Weight of Inflammed Ear (± S.E.)” value is recorded as 9.5 ± 0.3 mg. The inhibition at 1 µM on Δ^5-lipoxygenase (1 uM) is 24%. Further, at Δ^5-lipoxygenase, the inhibition at 10 µM turned out to be 90%.

In the case of `N#Cc1cc(O)c(O)c(O)c1` [3,4,5-trihydroxybenzonitrile], the “% Increase in Survival Time” value with L1210 (118 mg/kg) was 34.0%; with L1210 (157 mg/kg), 28.0%; in the test on P-388 (50 mg/kg), 15% and 20%; with P-388 (200 mg/kg) it was 26% and 39%; with P-388 (400 mg/kg), 26%.
